Assay in all cases: Radioligand Binding Assay
One test concerns the target T1, Adenosine receptor A1 (Homo sapiens, UniProt P30542).
T1 sequence (P30542 whole entry): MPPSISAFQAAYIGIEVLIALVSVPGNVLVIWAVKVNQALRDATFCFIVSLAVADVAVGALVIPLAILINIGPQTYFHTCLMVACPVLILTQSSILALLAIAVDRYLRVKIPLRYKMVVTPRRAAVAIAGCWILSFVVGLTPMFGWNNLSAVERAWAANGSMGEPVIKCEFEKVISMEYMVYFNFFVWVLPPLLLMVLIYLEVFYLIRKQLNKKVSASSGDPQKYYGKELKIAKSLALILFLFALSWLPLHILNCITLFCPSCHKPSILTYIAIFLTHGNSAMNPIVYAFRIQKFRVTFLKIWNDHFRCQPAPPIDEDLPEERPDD
The procedure:
(§1) Dissociation constants at A1, A2A and A3 receptors (Ki-values) were determined in radioligand competition experiments as reported earlier [19,20]. All binding experiments were done in a microplate format utilizing a 96-well microplate filtration system (Millipore Multiscreen MAFC). As radioligands the agonists [3H]CCPA (1 nM) for A1, [3H]NECA (10 nM) for A2A, and [3H]HEMADO (1 nM) for A3 receptors were used. Samples were incubated with 10 µg of membrane protein for 3 h at 25 °C, filtered through the built-in filter at the bottom of the wells and washed three times with […] of ice-cold binding buffer. After addition of 20 µl of scintillator to the dried filter plates samples were counted in a Wallac Micro-Beta counter. Nonspecific binding was determined in the presence of 1 mM theophylline ([3H]CCPA) or […] (N6-phenylisopropyladenosine; [3H]NECA and [3H] HEMADO).

A further test has as its target Adenosine receptor A2a (Homo sapiens, UniProt P29274). How it is done:
as §1

In another test the target is T2, Adenosine receptor A2b (Homo sapiens, UniProt P29275).
T2 sequence (P29275 whole entry): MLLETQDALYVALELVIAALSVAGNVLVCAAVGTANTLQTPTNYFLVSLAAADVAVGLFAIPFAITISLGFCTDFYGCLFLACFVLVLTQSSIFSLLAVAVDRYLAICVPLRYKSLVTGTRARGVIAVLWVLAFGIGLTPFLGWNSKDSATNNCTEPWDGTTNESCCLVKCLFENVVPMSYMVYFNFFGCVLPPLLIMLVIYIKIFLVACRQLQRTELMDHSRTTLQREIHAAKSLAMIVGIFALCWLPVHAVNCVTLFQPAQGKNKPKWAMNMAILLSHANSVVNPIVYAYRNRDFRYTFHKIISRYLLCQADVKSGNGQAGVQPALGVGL

The structures appear in SMILES notation.

Sequence of Adenosine receptor A2a (P29274 whole entry): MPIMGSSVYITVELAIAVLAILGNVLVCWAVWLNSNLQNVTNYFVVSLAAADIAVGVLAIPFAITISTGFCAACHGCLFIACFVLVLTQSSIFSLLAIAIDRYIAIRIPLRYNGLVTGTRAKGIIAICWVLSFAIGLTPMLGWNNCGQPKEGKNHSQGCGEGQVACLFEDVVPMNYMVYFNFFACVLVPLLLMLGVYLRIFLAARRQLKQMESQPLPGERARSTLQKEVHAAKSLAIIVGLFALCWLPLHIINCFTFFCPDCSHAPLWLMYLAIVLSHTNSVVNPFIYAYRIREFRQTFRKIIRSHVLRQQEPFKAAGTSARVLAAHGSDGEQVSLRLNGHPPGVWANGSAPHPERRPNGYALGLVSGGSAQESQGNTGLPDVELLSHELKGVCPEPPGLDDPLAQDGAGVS

Usually Ki stands for the dissociation constant of the complex between target and ligand, obtained from inhibition or displacement. A low value points to tighter binding. With `Cn1c(=O)c2[nH]c(-c3cccc(OCC(=O)N4CCCC4)c3)nc2n(C)c1=O` [1,3-Dimethyl-8-[3-{2-(pyrrolidin-1-yl)-2-oxoethoxy}-phenyl]xanthine (14c, RB-381)], the results for the inhibition constant (Ki) on Adenosine receptor A1, on Adenosine receptor A2a and on Adenosine receptor A2b were 3290 nM, 237 nM and more than 10000 nM, respectively.
Regarding `COC(=O)COc1ccc(-c2nc3c([nH]2)c(=O)n(C)c(=O)n3C)cc1` [1,3-Dimethyl-8-[4-(2-methoxy-2-oxoethoxy)-phenyl]xanthine (13, RB-419)], the Ki on Adenosine receptor A1 was 319 nM; at Adenosine receptor A2a it was 170 nM; at Adenosine receptor A2b, 980 nM.
For `COc1ccc(-c2nc3c([nH]2)c(=O)n(C)c(=O)n3C)cc1OCC(=O)N1CCN(C)CC1` [1,3-Dimethyl-8-[4-methoxy-3-{2-(1-methylpiperazin-4-yl)-2-oxo-ethoxy}-phenyl]xanthine (16g, RB-416)], in that order: 3640 nM, 685 nM and 6540 nM.
On the same counts, the results for `COc1ccc(-c2nc3c([nH]2)c(=O)n(C)c(=O)n3C)cc1OCC(=O)N1CCCCC1` [1,3-Dimethyl-8-[4-methoxy-3-{2-(piperidin-1-yl)-2-oxoethoxy}-phenyl]xanthine (16d, RB-417)] are 1620 nM, 76 nM and more than 10000 nM.
For the compound `COc1ccc(-c2nc3c([nH]2)c(=O)n(C)c(=O)n3C)cc1OCC(=O)N1CCCC1` [1,3-Dimethyl-8-[4-methoxy-3-{2-(pyrrolidin-1-yl)-2-oxoethoxy}-phenyl]xanthine (16c, RB-414)], the inhibition constant Ki is 5940 nM at Adenosine receptor A1, 259 nM at Adenosine receptor A2a and more than 10000 nM on Adenosine receptor A2b.
`COc1ccc(-c2nc3c([nH]2)c(=O)n(C)c(=O)n3C)cc1OCC(=O)N1CCOCC1` [1,3-Dimethyl-8-[4-methoxy-3-{(2-(morpholin-1-yl)-2-oxoethoxy}-phenyl]-xanthine (16f, RB-415)]: the Ki at Adenosine receptor A1 was 3510 nM; on Adenosine receptor A2a, 466 nM; at Adenosine receptor A2b, more than 10000 nM.
Turning to `CN(C)CCNC(=O)COc1ccc(-c2nc3c([nH]2)c(=O)n(C)c(=O)n3C)cc1` [1,3-Dimethyl-8-[4-{2-(dimethylaminoethylamino)-2-oxoethoxy}-phenyl]xanthine (13a, RB-420)], the inhibition constant (Ki) at Adenosine receptor A1 came to 220 nM; on Adenosine receptor A2a, 100 nM; at Adenosine receptor A2b, 903 nM.
`Cn1c(=O)c2[nH]c(-c3ccc(OCC(=O)N4CCCCCC4)cc3)nc2n(C)c1=O` [1,3-Dimethyl-8-[4-{2-(hexamethyleneimin-1-yl)-2-oxoethoxy}-phenyl]xanthine (13e, RB-424)]: the inhibition constant Ki came to 609 nM on Adenosine receptor A1, 273 nM at Adenosine receptor A2a and 443 nM on Adenosine receptor A2b.
For `Cn1c(=O)c2[nH]c(-c3ccc(OCC(=O)N4CCCCC4)cc3)nc2n(C)c1=O` [1,3-Dimethyl-8-[4-{2-(piperidin-1-yl)-2-oxoethoxy}-phenyl]xanthine (13d, RB-427)], in that order: 419 nM, 178 nM and 401 nM.
Take `Cn1c(=O)c2[nH]c(-c3ccc(OCC(=O)N4CCCC4)cc3)nc2n(C)c1=O` [1,3-Dimethyl-8-[4-{2-(pyrrolidin-1-yl)-2-oxoethoxy}-phenyl]xanthine (13c, RB-426)]: the inhibition constant (Ki) came out at 796 nM at Adenosine receptor A1, 122 nM on Adenosine receptor A2a and 1490 nM at Adenosine receptor A2b.
Take `COc1ccc(-c2nc3c([nH]2)c(=O)n(C)c(=O)n3C)cc1OCC(=O)NCCN(C)C` [1,3-Dimethyl-8-[{3-(2-(dimethylaminoethylamino)-2-oxoethoxy)-4-methoxy}-phenyl]-xanthine (16a, RB-413)]: the values for the inhibition constant (Ki) on Adenosine receptor A1, on Adenosine receptor A2a and on Adenosine receptor A2b were 847 nM, 75 nM and 4800 nM, respectively.
With `COc1ccc(-c2nc3c([nH]2)c(=O)n(C)c(=O)n3C)cc1OCC(=O)N1CCCCCC1` [1,3-Dimethyl-8-[{3-(2-(hexamethyleneimin-1-yl)-2-oxoethoxy)-4-methoxy}-phenyl]xanthine (16e, RB-449)], the values for the Ki at Adenosine receptor A1, on Adenosine receptor A2a and on Adenosine receptor A2b were 1910 nM, 94 nM and 3940 nM, respectively.
With `COc1ccc(CCNC(=O)COc2cc(-c3nc4c([nH]3)c(=O)n(C)c(=O)n4C)ccc2OC)cc1OC` [1,3-Dimethyl-8-[{3-(2-(homoveratrylamino)-2-oxoethoxy)-4-methoxy}-phenyl]xanthine (16i, RB-412)], the inhibition constant (Ki) is more than 30000 nM at Adenosine receptor A1, 772 nM on Adenosine receptor A2a and more than 30000 nM on Adenosine receptor A2b.
In the case of `COC(=O)COc1cc(-c2nc3c([nH]2)c(=O)n(C)c(=O)n3C)ccc1OC` [1,3-Dimethyl-8-[{3-(2-methoxy-2-oxoethoxy)-4-methoxy}-phenyl]xanthine (16, RB-410)], the Ki at Adenosine receptor A1 was 11800 nM; at Adenosine receptor A2a, 717 nM; on Adenosine receptor A2b it was more than 10000 nM.
`COc1cc(-c2nc3c([nH]2)c(=O)n(C)c(=O)n3C)ccc1OCC(=O)NCCN(C)C` [1,3-Dimethyl-8-[{4-(2-(dimethylaminoethylamino)-2-oxoethoxy)-3-methoxy}-phenyl]xanthine (15a, RB-386)]: the Ki at Adenosine receptor A1 came to 9250 nM; at Adenosine receptor A2a, 821 nM; at Adenosine receptor A2b, 10000 nM.
On the same counts, the results for `COc1cc(-c2nc3c([nH]2)c(=O)n(C)c(=O)n3C)ccc1OCC(=O)N1CCCCCC1` [1,3-Dimethyl-8-[{4-(2-(hexamethyleneimin-1-yl)-2-oxoethoxy)-3-methoxy}-phenyl]xanthine (15e, RB-387)] are more than 10000 nM, 2410 nM and 7820 nM.
For `COc1ccc(CCNC(=O)COc2ccc(-c3nc4c([nH]3)c(=O)n(C)c(=O)n4C)cc2OC)cc1OC` [1,3-Dimethyl-8-[{4-(2-(homoveratrylamino)-2-oxoethoxy)-3-methoxy}-phenyl]-xanthine (15i, RB-389)], in that order: more than 30000 nM, 843 nM and more than 30000 nM.
On the same counts, the results for `COc1cc(-c2nc3c([nH]2)c(=O)n(C)c(=O)n3C)ccc1OCC(=O)n1ccnc1` [1,3-Dimethyl-8-[{4-(2-(imidazol-1-yl)-2-oxoethoxy)-3-methoxy}-phenyl]xanthine (15h, RB-390)] are more than 30000 nM, 7740 nM and more than 30000 nM.
In the case of `COC(=O)COc1ccc(-c2nc3c([nH]2)c(=O)n(C)c(=O)n3C)cc1OC` [1,3-Dimethyl-8-[{4-(2-methoxy-2-oxoethoxy)-3-methoxy}-phenyl]xanthine (15, RB-384)], the inhibition constant (Ki) at Adenosine receptor A1 was more than 30000 nM; at Adenosine receptor A2a, 4380 nM; at Adenosine receptor A2b, more than 10000 nM.
`CCN(CC)CCNC(=O)COc1cccc(-c2nc3c([nH]2)c(=O)n(C)c(=O)n3C)c1` [8-[3-{2-(Diethylaminoethylamino)-2-oxoethoxy}-phenyl]-1,3-dimethylxanthine (14b, RB-378)]: the Ki is 1220 nM on Adenosine receptor A1, 179 nM on Adenosine receptor A2a and 4910 nM on Adenosine receptor A2b.
As for `CCN(CC)CCNC(=O)COc1ccc(-c2nc3c([nH]2)c(=O)n(C)c(=O)n3C)cc1` [8-[4-{2-(Diethylaminoethylamino)-2-oxoethoxy}-phenyl]-1,3-dimethylxanthine (13b, RB-421)], the figures for the inhibition constant (Ki) on Adenosine receptor A1, on Adenosine receptor A2a and at Adenosine receptor A2b were 298 nM, 63 nM and 968 nM, respectively.
`CCN(CC)CCNC(=O)COc1cc(-c2nc3c([nH]2)c(=O)n(C)c(=O)n3C)ccc1OC` [8-[{3-(2-(Diethylaminoethylamino)-2-oxoethoxy)-4-methoxy}phenyl]-1,3-dimethylxanthine (16b, RB-411)]: the Ki at Adenosine receptor A1 came to 1970 nM; at Adenosine receptor A2a, 126 nM; on Adenosine receptor A2b, 8050 nM.
Consider `CCN(CC)CCNC(=O)COc1ccc(-c2nc3c([nH]2)c(=O)n(C)c(=O)n3C)cc1OC` [8-[{4-(2-(Diethylaminoethylamino)-2-oxoethoxy)-3-methoxy}-phenyl]-1,3-dimethyl-xanthine (15b, RB-388)], for which the Ki on Adenosine receptor A1 was more than 10000 nM; at Adenosine receptor A2a, 692 nM; on Adenosine receptor A2b it was more than 10000 nM.

Values taken from BindingDB's records for doi:10.1016/j.bioorg.2016.01.003 (Panjab University, 2016).
